In patent publication EP0234708A1, “Tetrahydrocarbazole 1-alkanoic acids” (MERCK FROSST CANADA INC., priority 1986, dated 1987):

Key:
Human Platelets = target: T1, Human Platelets (Homo sapiens, UniProt P21731); experiment: Inhibition of induced threshold aggregation of human platelets (aggregating agent U44069, platelet rich plasma); format: cell-based; conditions: for IC50: human platelet rich plasma, threshold aggregation induced by U44069, read-out: Inhibition of platelet aggregation (IC50 in µg/ml) (converted)
T1 sequence (P21731 1-343): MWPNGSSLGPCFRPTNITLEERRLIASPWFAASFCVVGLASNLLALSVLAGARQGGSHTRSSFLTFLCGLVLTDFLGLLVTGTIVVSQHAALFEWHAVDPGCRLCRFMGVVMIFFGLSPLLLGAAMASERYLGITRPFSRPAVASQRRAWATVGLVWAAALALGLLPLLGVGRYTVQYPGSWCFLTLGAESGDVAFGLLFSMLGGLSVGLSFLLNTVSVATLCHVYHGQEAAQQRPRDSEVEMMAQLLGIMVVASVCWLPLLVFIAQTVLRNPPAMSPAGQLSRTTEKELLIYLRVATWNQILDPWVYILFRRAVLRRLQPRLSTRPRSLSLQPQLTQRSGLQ
Protocol: Inhibition of Induced Threshold Aggregation of Human
Human platelet rich plasma (PRP) is prepared from venous blood of male volunteers who have taken no medication for ten days prior to test. […] The supernatant (PRP) is transferred into plastic tubes. Platelet poor plasma (PPP) is obtained by centrifuging the residual blood cells at 4000 g for ten minutes. PRP is left to stand at least one half hour prior to testing.
Platelet Aggregation is measured using a Payton Aggregometer and Recorder. […] Drug vehicle (control), or a drug concentration is then added in a volume of 0.5 microliter. After one minute, the aggregating agent (U44069, 9,11-dideoxy-9α,11α-epoxymethano PGF 2a ) is added to the cuvette in a volume of 25 microliters. Recording is continued until the maximal response is obtained.
The threshold (approximately 20 - 30% of maximum) aggregation concentration of the agonist to be used is first determined in the presence of the drug vehicle (control). […] All drugs are dissolved in dimethylsulfoxide.
The height of the aggregation response (measured in divisions of the recorder paper, 1 division × 2.5 mm) in the presence of the drug is recorded, and calculated as percent inhibition of the mean height of the control threshold responses.

[1] = tested on: Guinea Pig Tracheal Chain; experiment: Estimation of pA2 values in guinea pig tracheal chain (contractile agonist U-44069); set-up: species or system guinea pigs; conditions: for pA2 / Kb: guinea pig tracheal chain, antagonism of U-44069 contraction, logarithmic scale; for Kb: Cavia porcellus; for prostanoid antagonist activity (statement in words): Table 4 data (platelet aggregation and pA2)
From the text: Estimation of pA2 Values in Guinea Pig Tracheal Chain
Male albino Hartley strain guinea pigs (300-350 gm) were sacrificed by a blow to the head and exsanguinated. The trachea was removed, freed of extraneous tissue and sectioned into rings of 1-2 mm thickness. Five rings were tied together in series, ensuring that the tracheal muscle lay in the same vertical plane, and the cartilage of each ring then separated at a point directly opposite the muscle. The chains were suspended under 1 gm resting tension in modified Krebs solution (NaCl, 6.87; NaHCO3, 2.1; dextrose, 2.1; KC1, 0.32; CaCl2, 0.28; MgSO4, 7H 0, 0.11; KH2PO4, 0.16; gm/L: equilibrated with 5% C02 in O2 for 1 hour) containing indomethacin (1.4 x 10^-5M) to suppress endogenous protaglandin synthesis, Organ bath temperature was maintained at 37°C and 5% C02 in 02 diffused continously. Isometric tension changes were recorded from a Gould-Statham (UTC 2) force displacement transducer connected to a Beckman Type R Dynograph. For assay purposes initial maximal contractions were elicited with a high concentration of the contractile agonist [U-44069, 9.11-dideoxy-9α,11α-epoxymethano PGF2α] and the tissue subsequently washed at intervals until tension returned to baseline. Agonist dose response curves were obtained using a cumulative-dose schedule (4-8 doses) and the preparations then washed at regular intervals until baseline tension was recorded. After an appropriate interval (1-1.5 hrs) agonist dose response curves were repeated in the presence of antagonist drug concentrations. […] EC50 values were obtained by regression analysis and used to calculate 'apparent' and Schild Plot pA2 values by the method of Tallarida and Murray 1981.

Work on `O=C(O)CC1CCCc2c1n(Cc1ccc(Cl)cc1)c1ccc(F)cc21` (single isomer, unassigned; (-)) [Compound 3, (-)9-p-chlorobenzyl-6-fluoro-1,2,3,4-tetrahydro-carbazol-1-yl-acetic acid] yielded an IC50 (Human Platelets) of 134 nM and a pA2 [1] of 8.0.
`COc1ccc2c(c1)c1c(n2Cc2ccc(Cl)cc2)CC(C(=O)O)CC1` (stereo not drawn) [B] was tested, and the IC50 (Human Platelets) was > 81100 nM, the Kb [1] was > 1000 nM and the “prostanoid antagonist activity (statement in words)” value (from here on “prostanoid antagonist activity”) [1] was “no significant activity”.
For `COc1ccc2c(c1)c1cccc(CC(=O)O)c1n2Cc1ccc(Cl)cc1` [C], the IC50 (Human Platelets) was > 79000 nM, the Kb [1] was 263 nM and the “prostanoid antagonist activity” value [1] was “does not possess any significant activity”.
`O=C(O)CC1CCCc2c1n(Cc1ccc(Cl)cc1)c1ccc(F)cc21` (stereo not drawn) [Compound 1, 9-p-chlorobenzyl-6-fluoro-1,2,3,4-tetrahydrocarbazol-1-yl-acetic acid] was tested, and the IC50 (Human Platelets) was 80.7 nM and the pA2 [1] was 8.6.
Work on `COc1ccc2c(c1)c1c(n2Cc2ccc(Cl)cc2)C(CC(=O)O)CCC1` (stereo not drawn) [Compound 2, 9-p-chlorobenzyl-6-methoxy-1,2,3,4-tetrahydrocarbazol-1-yl-acetic acid] yielded an IC50 (Human Platelets) of 782 nM and a Kb [1] of 3.98 nM.
In the case of `COc1ccc(Cn2c3c(c4cc(F)ccc42)CCCC3CC(=O)O)cc1` (stereo not drawn) [Compound 6, 9-p-methoxybenzyl-6-fluoro-1,2,3,4-tetrahydrocarbazol-1-yl-acetic acid], the IC50 (Human Platelets) is reported as 408 nM and the Kb [1] is reported as 2 nM.
`O=C(O)CC1CCCc2c1n(Cc1ccc(Cl)c(Cl)c1)c1ccc(F)cc21` (stereo not drawn) [Compound 7, 9-(3,4-dichloro)benzyl-6-fluoro-1,2,3,4-tetrahydro-carbazol-1-yl-acetic acid] was tested, and the IC50 (Human Platelets) was 222 nM and the Kb [1] was 5.01 nM.
`CC(c1ccccc1)n1c2c(c3cc(F)ccc31)CCCC2CC(=O)O` (stereo not drawn) [Compound 8, 9-[1-(1-phenyl)ethyl]-6-fluoro-1,2,3,4-tetrahydro-carbazol-1-yl-acetic acid] was tested, and the IC50 (Human Platelets) was 256 nM and the Kb [1] was > 1000 nM.
`O=C(O)CC1CCCc2c1n(Cc1ccc(Cl)cc1)c1ccccc21` (stereo not drawn) [Compound 9, 9-p-chlorobenzyl-1,2,3,4-tetrahydrocarbazol-1-yl-acetic acid] gave an IC50 (Human Platelets) of 141 nM and a Kb [1] of 1.26 nM.
For `O=C(O)CC1CCCc2c1n(Cc1ccc(Cl)cc1)c1ccc(Cl)cc21` (stereo not drawn) [Compound 10, 9-p-chlcrobenzyl-6-chloro-1,2,3,4-tetrahydrocarbazol-1-yl-acetic acid], the IC50 (Human Platelets) was 258 nM and the Kb [1] was 10 nM.
Compound `Cc1cccc2c3c(n(Cc4ccc(Cl)cc4)c12)C(CC(=O)O)CCC3` (stereo not drawn) [Compound 11, 9-p-chlorobenzyl-8-methyl-l,2,3,4-tetrahydrocarbazol-1-yl-acetic acid] has an IC50 (Human Platelets) of 272 nM and a Kb [1] of 0.316 nM.
`O=C(O)CC1CCCc2c1n(Cc1ccc(Cl)cc1)c1ccc(Br)cc21` (stereo not drawn) [Compound 12, 6-bromo-9-p-chlorobenzyl-l,2,3,4-tetrahydrocarbazol-l-yl-acetic acid] gave an IC50 (Human Platelets) of 208 nM and a Kb [1] of 12.6 nM.
Compound `Cc1ccc2c(c1)c1c(n2Cc2ccc(Cl)cc2)C(CC(=O)O)CCC1` (stereo not drawn) [Compound 13, 9-p-chlorobenzyl-6-methyl-1,2,3,4-tetrahydrocarbazol-1-yl-acetic acid] has an IC50 (Human Platelets) of 217 nM and a Kb [1] of 25.1 nM.
Work on `O=C(O)CC1CCCc2c1n(Cc1ccc(Cl)cc1)c1c(F)cccc21` (stereo not drawn) [Compound 14, 9-p-chlorobenzyl-8 fluoro-1,2,3,4-tetrahydrocarbazol-1-yl-acetic acid] yielded an IC50 (Human Platelets) of 215 nM and a Kb [1] of 0.398 nM.
For `O=C(O)CC1CCCc2c1n(Cc1ccc(Cl)cc1)c1cccc(F)c21` (stereo not drawn) [Compound 16, 9-p-chlorobenzyl-5-fluoro-1,2,3,4-tetrahydrocarbazol-1-yl-acetic acid], the IC50 (Human Platelets) was 457 nM and the Kb [1] was 1.26 nM.
Work on `O=C(O)CC1CCCc2c1n(Cc1ccc(Cl)cc1)c1c(Cl)cc(Cl)cc21` (stereo not drawn) [Compound 19, 9-p-chlorobenzyl-6,8-dichloro-1,2,3,4-tetrahydro-carbazol-1-yl-acetic acid] yielded an IC50 (Human Platelets) of 166 nM and a Kb [1] of 63.1 nM.
`CC(C(=O)O)C1CCCc2c1n(Cc1ccc(Cl)cc1)c1ccc(F)cc21` (stereo not drawn) [Compound 20, 2-[9-p-chlorobenzyl-6-fluoro-1,2,3,4-tetrahydro-carbazol-1-yl-]propanoic acid] was tested, and the IC50 (Human Platelets) was 803 nM and the Kb [1] was 158 nM.
For `COc1ccc2c(c1)c1c(n2Cc2ccc(Cl)cc2)CC(CC(=O)O)CC1` (stereo not drawn) [Compound A, reference compound], the “times less potent as an inhibitor of platelet aggregation” value (Human Platelets; compared with compound 2) was ~12, the IC50 (Human Platelets) was 9120 nM and the Kb [1] was 158 nM. For the same compound, the “pA2 is a factor less than that of compound 2” value ([1]; compared with compound 2, printed as antilog of 1.6) was 14.
With `O=C(O)CC1CCCc2c1[nH]c1ccc(F)cc21` (stereo not drawn) [Compound F, 6-fluoro-1,2,3,4-tetrahydrocarbazol-1-yl-acetic acid] the IC50 (Human Platelets) was 13800 nM, the Kb [1] was > 1000 nM and the “prostanoid antagonist activity” value [1] was “severe loss of activity”.
In the case of `O=C(O)CC1CCCc2c1n(CCc1ccc(Cl)cc1)c1ccc(F)cc21` (stereo not drawn) [Compound H, 9-[1-(2-p-chlorophenyl)ethyl]-6-fluoro-1,2,3,4-tetra-hydrocarbazol-1-yl-acetic acid], the IC50 (Human Platelets) is reported as 35200 nM, the Kb [1] is reported as 158 nM and the “prostanoid antagonist activity” value [1] is reported as “serious loss of activity”.
For `COc1ccc2c(c1)c1c(n2Cc2ccc(Cl)cc2)CCCC1C(=O)O` (stereo not drawn) [D], the Kb [1] was > 1000 nM and the “prostanoid antagonist activity” value [1] was “severe loss of activity”.
With `COc1ccc2c(c1)c1c(n2Cc2ccc(Cl)cc2)C(C(=O)O)CCC1` (stereo not drawn) [E] the IC50 (Human Platelets) was 11400 nM, the Kb [1] was 219 nM and the “prostanoid antagonist activity” value [1] was “severe loss of activity”.
In the case of `CC(C)n1c2c(c3cc(F)ccc31)CCCC2CC(=O)O` (stereo not drawn) [G, 6-fluoro-9-isopropyl-1,2,3,4-tetrahydrocarbazol-1-yl-acetic acid], the IC50 (Human Platelets) is reported as 47000 nM, the Kb [1] is reported as > 1000 nM and the “prostanoid antagonist activity” value [1] is reported as “almost completely lost activity”.
